“And” between values parts separate entries of the source, which are not always exact repeats. Equal entries are not always repeated.
Experiments:
[1] = system: BRD4 binding to the HIF1A promoter; experiment: BRD4 ChIP-qPCR of the HIF1A promoter in A2780 cells; type: cell-based, human
Description: (§1) Fig. 7 NHWD-870 inhibited CSF1 expression through suppressing BRD4 and HIF1α in tumor cells. a, b Representative western blot analysis of control (Ctrl) and BRD4 knockout (KO) A375 and A2780 cells exposed to 20% or 1% O2 for 24 hours. Selected from three independent experiments. c, d Representative western blot analysis of A375 and A2780 cells treated with DMSO or 25 nM NHWD-870 and exposed to 20% or 1% O2 for 24 h. Selected from three independent experiments. e Relative HIF1 luciferase reporter activity in control (Ctrl), BRD4 knockout (KO), or NHWD-870 treated A375 and A2780 cells exposed to 20% or 1% O2 for 24 h. Data are presented as mean ± SEM from three independent experiments. f RT-qPCR analyses of CSF1 in control (Ctrl), BRD4 knockout (KO), or NHWD-870 treated A375 and A2780 cells exposed to 20% or 1% O2 for 24 hours. Data are presented as mean ± SEM from three independent experiments. g RT-qPCR analyses of HIF1A in A375 or A2780 cells treated with 15 nM NHWD-870 or DMSO control for 24 h. Data are presented as mean ± SEM from three independent experiments. h Genome browser view of BRD4 ChIP-seq peaks on the HIF1A promoter. Shown are BRD4 ChIP and input control of A375 cells (top panel) and BRD4 ChIP of MDA-MB231 cells treated with DMSO or JQ-1 (bottom panel). i BRD4 ChIP-qPCR analyses of the HIF1A promoter in A2780 cells treated with DMSO or NHWD-870 for 72 h. Data are presented as mean ± SEM from three independent experiments. j RT-qPCR analyses of CSF1 in A375 and A2780 cells were transiently transduced with HIF1α, then exposed to 1% O2 for 24 h. Ctrl, Control. Data are presented as mean ± SEM from three independent experiments. k A model showing the effects of NHWD-870 on cancer cell-TAM interaction. NHWD-870 inhibits the proliferation and survival of TAMs partly by inhibiting BRD4 activity, HIF1α expression, and CSF1 secretion by tumor cells, and downregulating CSF1R mediated ERK and PI3K/AKT signaling in TAMs. p values were calculated using two-tailed, unpaired t tests in this figure. *p < 0.05; **p < 0.01; ***p < 0.001. […]

[2] = system: TAMs (CD11b+F4/80+ cells) in A375 melanoma model; experiment: FACS analysis of TAMs in A375 tumors; type: in vivo, mouse; conditions: day 21, FACS
Description: Flow cytometry analyses were performed using antibodies listed in Supplementary Table 8. For cell surface markers, mouse TAM suspensions were stained with mouse APC-CD45, FITC-CD11b, PE-F4/80 or APC-F4/80, CD68, and PE-CD206 antibodies for 15 min on ice. For Ki67 staining, cells were fixed in 4% paraformaldehyde and stained with FITC-Ki67. Isotype matching antibody served as the negative control. Flow cytometry was performed on a FACSCalibur (BD Biosciences). Data were analyzed with BD CellQuest Pro software version 5.1.
(a,b) Tumors from A375 tumor bearing mice in Figure 3e were harvested at day 21 and stained with anti-CD45, CD11b, F4/80, CD68 and Ki67 followed by FACS analysis. Shown are representative FACS plots (a ) and quantification of the percentage of CD11b+F4/80+ and CD11b+F4/80+CD68+Ki67+ cells (b). Data are presented as mean ± SEM from 5 different mice. p values were calculated using two-tailed, unpaired t tests.
**, p<0.01; ***, p<0.001. (c,d) Tumors from mice described in Figure 4e were harvested at day 45 and stained […]

HIF1A mRNA = experiment: RT-qPCR of HIF1A in A375 or A2780 cells; type: cell-based, human
Description: as §1, with “Shown are BRD4 ChIP and input control of A375 cells (top panel) and BRD4 ChIP of MDA-MB231 cells treated with DMSO or JQ-1 (bottom panel). i BRD4 ChIP-qPCR analyses of the HIF1A promoter in A2780 cells treated with DMSO or NHWD-870 for 72 h. Data are presented as mean ± SEM from three independent experiments. j RT-qPCR analyses of CSF1 in A375 and A2780 cells were transiently transduced with HIF1α, then exposed to 1% O2 for 24 h. Ctrl, Control. Data are presented as mean ± SEM from three independent experiments. k A model showing the effects of NHWD-870 on cancer cell-TAM interaction.” left out
Total RNA was extracted with RNeasy plus mini kit (Qiagen), and then cDNA was synthesized by iScript™ cDNA Synthesis Kit (Bio-Rad). qPCR was performed using a CFX96 Real-time PCR Instrument (BioRad). Data were collected using CFX Manager version 3.1.1517.823 and analyzed using Microsoft Excel 2010. Relative expression levels were determined by normalization to human GAPDH using the ∆∆Ct method. […]

Cc1nnn(C)c1-c1cnc2c3c4cnn(C)c4ccc3n([C@H](c3ccccc3)C3CCOCC3)c2c1 [NHWD-870]
ChIP-qPCR enrichment relative to input, IgG (Fig.7i) ([1]; A2780, 15nM 3 days): 0.411 and 0.4665 and 0.4566
ChIP-qPCR enrichment relative to input, anti-BRD4 (Fig.7i) ([1]; A2780, 15nM 3 days): 0.646 and 0.721 and 0.6555
BRD4 binding to the HIF1A promoter (ChIP-qPCR) ([1]; A2780 cells, 15nM, 72 h): decreased BRD4 binding to the HIF1A promoter
number of TAMs (CD11b+F4/80+ cells) or proliferating TAMs [2]: decreased the number of TAMs
HIF1A mRNA levels (HIF1A mRNA; 15 nM, 24 h, A375 or A2780 cells): decreased HIF1A mRNA levels
HIF1A mRNA, relative to DMSO (Fig.7g) (HIF1A mRNA; A375): 0.3638 and 0.3259 and 0.3497
HIF1A mRNA, relative to DMSO (Fig.7g) (HIF1A mRNA; A2780): 0.269 and 0.2453 and 0.2176

Source: PMC7156724, “Potent BRD4 inhibitor suppresses cancer cell-macrophage interaction” (Nature Communications, 2020)
